Assay results from the supplement of paper PMC11208160.

Experiment: recombinant UMI read abundance after kanamycin selection (control-corrected) (log10(CPM+1)); higher = more efficient recombination; extreme values may be limits of the assay; sequences stand for … in AGTGCAGAGAAAATCGGCCAGTTTTCTCTGCCTGCAGTCCGCATGCCGTGGGACCCCTTGGGTTCTAACCTGTTGCCTAGATTTATGCAGCGGACTGCCTTTCTCCCAAAGTGATAAACCGG…AGGTTGGTTTCACT; site = the 11-nt donor
Summary of the method: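 Values, expressed as log10(CPM+1), derive from recombinant UMI counts converted to CPM, averaged across replicates and scaled by control-derived factors. Plating was with IPTG (0.07 mM) plus kanamycin or unselected, two replicates each. The screen pooled donor and donor-binding-loop pairs for the IS621 bridge recombinase in Escherichia coli.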
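Note: IS621 bridge recombinase in Escherichia coli cells against a fixed T5 target plasmid.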

Sequence | recombinant UMI read abundance (log10)
GGCAATCCATGGACCGGTTTTCCCGGTAATCCGTATTTGAA (site GGCTATCCTTT) | 0.316
GGCAATCCATGGACCGGTTTTCCCGGTAATCCGTATTTGAA (site GGGAATCCTTT) | 0.0169
GGCAATCCATGGACCGGTTTTCCCGGTAATCCGTATTTGAA (site GGTAATCCTTT) | 0.00354
GGCAATCCATGGACCGGTTTTCCCGGTAATCCGTATTTGAA (site GTCAATCCTTT) | 0.236
GGCAATCCATGGACCGGTTTTCCCGGTAATCCGTATTTGAA (site TGCAATCCTTT) | 0.0119
GGCACTCCATGGACCGGTTTTCCCGGTAATCCGTATTTGAA (site GGCAATCCTTT) | 0
GGCACTCCATGGACCGGTTTTCCCGGTAATCCGTATTTGAA (site GGCACTCCTTT) | 0.248
GGCACTCCATGGACCGGTTTTCCCGGTAATCCGTATTTGAA (site GGCAGTCCTTT) | 0.00862
GGCACTCCATGGACCGGTTTTCCCGGTAATCCGTATTTGAA (site GGCATTCCTTT) | 0.00807
GGCAGGCCATGGACCGGTTTTCCCGGTAATCCGTATTTGCT (site GGCAGGCCTAG) | 0.861
GGCATGACATGGACCGGTTTTCCCGGTAATCCGTATTTGCC (site GGCATGACTGG) | 0
GGCCACACATGGACCGGTTTTCCCGGTAATCCGTATTTGTT (site GGCCACACTAA) | 0.485
GGCCACACATGGACCGGTTTTCCCGGTAATCCGTATTTGTT (site GGCCACCCTAA) | 0.035
GGCCACACATGGACCGGTTTTCCCGGTAATCCGTATTTGTT (site GGCCACGCTAA) | 0.0159
GGCCACACATGGACCGGTTTTCCCGGTAATCCGTATTTGTT (site GGCCACTCTAA) | 0.00795
GGCCACCCATGGACCGGTTTTCCCGGTAATCCGTATTTGAT (site GGCCACCCTAA) | 0.0182
GGCCACCCATGGACCGGTTTTCCCGGTAATCCGTATTTGAT (site GGCCACCCTAC) | 0.00622

Sequence | recombinant UMI read abundance (log10)
GGCCACCCATGGACCGGTTTTCCCGGTAATCCGTATTTGAT (site GGCCACCCTAG) | 0
GGCCACCCATGGACCGGTTTTCCCGGTAATCCGTATTTGAT (site GGCCACCCTAT) | 0
GGCCAGCCATGGACCGGTTTTCCCGGTAATCCGTATTTGTA (site GGCCAGCCTTA) | 0.0264
GGCCGATCATGGACCGGTTTTCCCGGTAATCCGTATTTGCG (site GGCCGATCTCG) | 1.88
GGCCGATCATGGACCGGTTTTCCCGGTAATCCGTATTTGTC (site GGCCGATCTGA) | 0.695
GGCCGTGCATGGACCGGTTTTCCCGGTAATCCGTATTTGCC (site GGCCGTGCTGG) | 1.16
GGCCTCCCATGGACCGGTTTTCCCGGTAATCCGTATTTGTT (site GGCCACCCTAA) | 0.0137
GGCCTCCCATGGACCGGTTTTCCCGGTAATCCGTATTTGTT (site GGCCCCCCTAA) | 0
GGCCTCCCATGGACCGGTTTTCCCGGTAATCCGTATTTGTT (site GGCCGCCCTAA) | 0.0206
GGCCTCCCATGGACCGGTTTTCCCGGTAATCCGTATTTGTT (site GGCCTCCCTAA) | 0.00625
GGCGAACCATGGACCGGTTTTCCCGGTAATCCGTATTTGAC (site GGCGAACCTGT) | 0
GGCGAACCATGGACCGGTTTTCCCGGTAATCCGTATTTGGG (site GGCGAACCTCC) | 0
GGCGACCCATGGACCGGTTTTCCCGGTAATCCGTATTTGTT (site GGCAACCCTAA) | 0
GGCGACCCATGGACCGGTTTTCCCGGTAATCCGTATTTGTT (site GGCCACCCTAA) | 0.0153
GGCGACCCATGGACCGGTTTTCCCGGTAATCCGTATTTGTT (site GGCGACCCTAA) | 0.263
GGCGACCCATGGACCGGTTTTCCCGGTAATCCGTATTTGTT (site GGCTACCCTAA) | 0.0186
GGCGAGGCATGGACCGGTTTTCCCGGTAATCCGTATTTGTC (site GGCGAGGCTGA) | 2.23
